Counter-ions that a name gives are not always drawn. Like-named read-outs stand apart in the source and are kept apart here.
Key:
Assay in all cases: AK assay 384-well format, Prestwick library screening
[1] = test system: S. aureus strain USA300-0114; type: cell-based, Staphylococcus aureus; details: 50 μM final drug concentration; for fold induction at 50 µM: Staphylococcus aureus, USA300, 3 h
P. aeruginosa = type: cell-based, Pseudomonas aeruginosa; details: 50 μM final drug concentration; for fold induction at 50 µM: Pseudomonas aeruginosa, 3 h
E. faecium = type: cell-based, Enterococcus faecium; details: 50 μM final drug concentration; for fold induction at 50 µM: Enterococcus faecium, 3 h
[2] = test system: A. baumannii strain 98-37-09; type: cell-based, Acinetobacter baumannii; details: 50 μM final drug concentration; for fold induction at 50 µM: Acinetobacter baumannii, 983709, 3 h
E. cloacae = type: cell-based, Enterobacter cloacae; details: 50 μM final drug concentration; for fold induction at 50 µM: Enterobacter cloacae, 3 h
E. coli = type: cell-based, Escherichia coli; details: 50 μM final drug concentration; for fold induction at 50 µM: Escherichia coli, 3 h
K. pneumoniae = type: cell-based, Klebsiella pneumoniae; details: 50 μM final drug concentration; for fold induction at 50 µM: Klebsiella pneumoniae, 3 h
[3] = planktonic, cutoff for positive-scoring molecules 3-fold increase, read-out: AK-based Prestwick Library Screening Results, S. aureus (fold increase in extracellular AK activity)
[4] = planktonic, cutoff for positive-scoring molecules 3-fold increase, read-out: AK-based Prestwick Library Screening Results, P. aeruginosa (fold increase in extracellular AK activity)
[5] = planktonic, cutoff for positive-scoring molecules 3-fold increase, read-out: AK-based Prestwick Library Screening Results, E. faecium (fold increase in extracellular AK activity)
[6] = planktonic, cutoff for positive-scoring molecules 3-fold increase, read-out: AK-based Prestwick Library Screening Results, A. baumannii (fold increase in extracellular AK activity)
[7] = planktonic, cutoff for positive-scoring molecules 3-fold increase, read-out: AK-based Prestwick Library Screening Results, E. cloacae (fold increase in extracellular AK activity)
[8] = planktonic, cutoff for positive-scoring molecules 3-fold increase, read-out: AK-based Prestwick Library Screening Results, E. coli (fold increase in extracellular AK activity)
[9] = planktonic, cutoff for positive-scoring molecules 3-fold increase, read-out: AK-based Prestwick Library Screening Results, K. pneumoniae (fold increase in extracellular AK activity)
[10] = planktonic, cutoff for positive 3-fold increase, read-out: AK-based Prestwick Library Screening Results, S. aureus (fold increase in extracellular AK activity)
[11] = planktonic, cutoff for positive 3-fold increase, read-out: AK-based Prestwick Library Screening Results, P. aeruginosa (fold increase in extracellular AK activity)
[12] = planktonic, cutoff for positive 3-fold increase, read-out: AK-based Prestwick Library Screening Results, E. faecium (fold increase in extracellular AK activity)
[13] = planktonic, cutoff for positive 3-fold increase, read-out: AK-based Prestwick Library Screening Results, A. baumannii (fold increase in extracellular AK activity)
[14] = planktonic, cutoff for positive 3-fold increase, read-out: AK-based Prestwick Library Screening Results, E. cloacae (fold increase in extracellular AK activity)
[15] = planktonic, cutoff for positive 3-fold increase, read-out: AK-based Prestwick Library Screening Results, E. coli (fold increase in extracellular AK activity)
[16] = planktonic, cutoff for positive 3-fold increase, read-out: AK-based Prestwick Library Screening Results, K. pneumoniae (fold increase in extracellular AK activity)

## CC(=O)[C@H]1CC[C@H]2[C@@H]3C=CC4=CC(=O)CC[C@@]4(C)[C@@H]3CC[C@]12C [Dydrogesterone]
[1]; [3]
  fold induction at 50 µM: 0.7
P. aeruginosa; [4]
  fold induction at 50 µM: 0.9
E. faecium; [5]
  fold induction at 50 µM: 1
[2]; [6]
  fold induction at 50 µM: 0.8
E. cloacae; [7]
  fold induction at 50 µM: 1.2
E. coli; [8]
  fold induction at 50 µM: 0.9
K. pneumoniae; [9]
  fold induction at 50 µM: 0.8

## CC=CC(=O)N(CC)c1ccccc1C [Crotamiton]
[1]; […]
  AK-based Prestwick Library Screening Results, S. aureus (fold increase in extracellular AK activity): 1.3
P. aeruginosa; […]
  AK-based Prestwick Library Screening Results, P. aeruginosa (fold increase in extracellular AK activity): 1.3
E. faecium; […]
  AK-based Prestwick Library Screening Results, E. faecium (fold increase in extracellular AK activity): 1.1
[2]; […]
  AK-based Prestwick Library Screening Results, A. baumannii (fold increase in extracellular AK activity): 1.3
E. cloacae; […]
  AK-based Prestwick Library Screening Results, E. cloacae (fold increase in extracellular AK activity): 1.3
E. coli; […]
  AK-based Prestwick Library Screening Results, E. coli (fold increase in extracellular AK activity): 1.5
K. pneumoniae; […]
  AK-based Prestwick Library Screening Results, K. pneumoniae (fold increase in extracellular AK activity): 1.1

## Verteporfin
[1]; planktonic S. aureus, positive cutoff 3-fold increase
  AK-based Prestwick library screening result, S. aureus (fold increase in extracellular AK activity): 0.5
P. aeruginosa; planktonic P. aeruginosa, positive cutoff 3-fold increase
  AK-based Prestwick library screening result, P. aeruginosa (fold increase in extracellular AK activity): 0.8
E. faecium; planktonic E. faecium, positive cutoff 3-fold increase
  AK-based Prestwick library screening result, E. faecium (fold increase in extracellular AK activity): 1.2
[2]; planktonic A. baumannii, positive cutoff 3-fold increase
  AK-based Prestwick library screening result, A. baumannii (fold increase in extracellular AK activity): 0.9
E. cloacae; planktonic E. cloacae, positive cutoff 3-fold increase
  AK-based Prestwick library screening result, E. cloacae (fold increase in extracellular AK activity): 1.6
E. coli; planktonic E. coli, positive cutoff 3-fold increase
  AK-based Prestwick library screening result, E. coli (fold increase in extracellular AK activity): 0.7
K. pneumoniae; planktonic K. pneumoniae, positive cutoff 3-fold increase
  AK-based Prestwick library screening result, K. pneumoniae (fold increase in extracellular AK activity): 0.8

## Cn1c(-c2ccc3c(c2)OCO3)cc(=O)c2ccccc21 [Graveoline]
[1]; [3]
  fold induction at 50 µM: 0.7
P. aeruginosa; [4]
  fold induction at 50 µM: 0.8
E. faecium; [5]
  fold induction at 50 µM: 0.8
[2]; [6]
  fold induction at 50 µM: 0.8
E. cloacae; [7]
  fold induction at 50 µM: 1.2
E. coli; [8]
  fold induction at 50 µM: 0.8
K. pneumoniae; [9]
  fold induction at 50 µM: 0.6

## C[C@]12C[C@H](O)[C@H]3[C@@H](CCC4=CC(=O)CC[C@@]43C)[C@@H]1CC[C@@H]2C(=O)CO [Corticosterone]
[1]; planktonic S. aureus, cutoff for positive-scoring molecules 3-fold increase, read-out: AK-based Prestwick Library Screening Results, S. aureus (increase in extracellular AK activity)
  fold induction at 50 µM: 0.6
P. aeruginosa; planktonic P. aeruginosa, cutoff for positive-scoring molecules 3-fold increase, read-out: AK-based Prestwick Library Screening Results, P. aeruginosa (increase in extracellular AK activity)
  fold induction at 50 µM: 0.8
E. faecium; planktonic E. faecium, cutoff for positive-scoring molecules 3-fold increase, read-out: AK-based Prestwick Library Screening Results, E. faecium (increase in extracellular AK activity)
  fold induction at 50 µM: 0.9
[2]; planktonic A. baumannii, cutoff for positive-scoring molecules 3-fold increase, read-out: AK-based Prestwick Library Screening Results, A. baumannii (increase in extracellular AK activity)
  fold induction at 50 µM: 0.9
E. cloacae; planktonic E. cloacae, cutoff for positive-scoring molecules 3-fold increase, read-out: AK-based Prestwick Library Screening Results, E. cloacae (increase in extracellular AK activity)
  fold induction at 50 µM: 1.2
E. coli; planktonic E. coli, cutoff for positive-scoring molecules 3-fold increase, read-out: AK-based Prestwick Library Screening Results, E. coli (increase in extracellular AK activity)
  fold induction at 50 µM: 0.9
K. pneumoniae; planktonic K. pneumoniae, cutoff for positive-scoring molecules 3-fold increase, read-out: AK-based Prestwick Library Screening Results, K. pneumoniae (increase in extracellular AK activity)
  fold induction at 50 µM: 0.7

## CCCCc1cc2ccccc2c(OCCN(C)C)n1 [Dimethisoquin hydrochloride]
[1]; [10]
  fold induction at 50 µM: 1.3
P. aeruginosa; [11]
  fold induction at 50 µM: 1.2
E. faecium; [12]
  fold induction at 50 µM: 1
[2]; [13]
  fold induction at 50 µM: 1.5
E. cloacae; [14]
  fold induction at 50 µM: 1.5
E. coli; [15]
  fold induction at 50 µM: 1.3
K. pneumoniae; [16]
  fold induction at 50 µM: 1.2

## O=C1NCCN1c1ncc([N+](=O)[O-])s1 [Niridazole]
[1]; [10]
  fold induction at 50 µM: 1.8
P. aeruginosa; [11]
  fold induction at 50 µM: 1.2
E. faecium; [12]
  fold induction at 50 µM: 1
[2]; [13]
  fold induction at 50 µM: 1.4
E. cloacae; [14]
  fold induction at 50 µM: 6.1
E. coli; [15]
  fold induction at 50 µM: 13.2
K. pneumoniae; [16]
  fold induction at 50 µM: 6

## COC1=CC(=O)O[C@@H](/C=C/c2ccccc2)C1 [Kawain]
[1]; planktonic S. aureus, 384-well, […], read-out: AK-based Prestwick Library Screening Results: S. aureus (increase in extracellular AK activity)
  fold induction at 50 µM: 1
P. aeruginosa; planktonic P. aeruginosa, 384-well, […], read-out: AK-based Prestwick Library Screening Results: P. aeruginosa (increase in extracellular AK activity)
  fold induction at 50 µM: 1
E. faecium; planktonic E. faecium, 384-well, […], read-out: AK-based Prestwick Library Screening Results: E. faecium (increase in extracellular AK activity)
  fold induction at 50 µM: 1.1
[2]; planktonic A. baumannii, 384-well, […], read-out: AK-based Prestwick Library Screening Results: A. baumannii (increase in extracellular AK activity)
  fold induction at 50 µM: 1.2
E. cloacae; planktonic E. cloacae, 384-well, […], read-out: AK-based Prestwick Library Screening Results: E. cloacae (increase in extracellular AK activity)
  fold induction at 50 µM: 1.4
E. coli; planktonic E. coli, 384-well, […], read-out: AK-based Prestwick Library Screening Results: E. coli (increase in extracellular AK activity)
  fold induction at 50 µM: 1.1
K. pneumoniae; planktonic K. pneumoniae, 384-well, […], read-out: AK-based Prestwick Library Screening Results: K. pneumoniae (increase in extracellular AK activity)
  fold induction at 50 µM: 1

## O=C1OCCN1/N=C/c1ccc([N+](=O)[O-])o1 [Furazolidone]
[1]; [3]
  fold induction at 50 µM: 0.8
P. aeruginosa; [4]
  fold induction at 50 µM: 0.6
E. faecium; [5]
  fold induction at 50 µM: 0.9
[2]; [6]
  fold induction at 50 µM: 0.4
E. cloacae; [7]
  fold induction at 50 µM: 0.6
E. coli; [8]
  fold induction at 50 µM: 0.8
K. pneumoniae; [9]
  fold induction at 50 µM: 3.2

## CC(=O)O[C@H]1CC[C@@]2(C)C(=CC[C@@H]3[C@@H]2CC[C@]2(C)C(=O)CC[C@@H]32)C1 [Dehydroisoandosterone 3-acetate]
[1]; […]
  AK-based Prestwick Library Screening Results, S. aureus (fold increase in extracellular AK activity): 0.8
P. aeruginosa; […]
  AK-based Prestwick Library Screening Results, P. aeruginosa (fold increase in extracellular AK activity): 1.1
E. faecium; […]
  AK-based Prestwick Library Screening Results, E. faecium (fold increase in extracellular AK activity): 1.1
[2]; […]
  AK-based Prestwick Library Screening Results, A. baumannii (fold increase in extracellular AK activity): 1.1
E. cloacae; […]
  AK-based Prestwick Library Screening Results, E. cloacae (fold increase in extracellular AK activity): 1.7
E. coli; […]
  AK-based Prestwick Library Screening Results, E. coli (fold increase in extracellular AK activity): 1.0
K. pneumoniae; […]
  AK-based Prestwick Library Screening Results, K. pneumoniae (fold increase in extracellular AK activity): 0.9

## O=C(Nc1ccccc1)OCC(CN1CCCCC1)OC(=O)Nc1ccccc1 (centres unmarked) [Diperodon hydrochloride]
[1]; planktonic S. aureus, 384-well, cutoff for positive-scoring molecules 3-fold increase, read-out: AK-based Prestwick Library Screening Results: S. aureus (increase in extracellular AK activity)
  fold induction at 50 µM: 1.2
P. aeruginosa; planktonic P. aeruginosa, 384-well, cutoff for positive-scoring molecules 3-fold increase, read-out: AK-based Prestwick Library Screening Results: P. aeruginosa (increase in extracellular AK activity)
  fold induction at 50 µM: 1.1
E. faecium; planktonic E. faecium, 384-well, cutoff for positive-scoring molecules 3-fold increase, read-out: AK-based Prestwick Library Screening Results: E. faecium (increase in extracellular AK activity)
  fold induction at 50 µM: 1.1
[2]; planktonic A. baumannii, 384-well, cutoff for positive-scoring molecules 3-fold increase, read-out: AK-based Prestwick Library Screening Results: A. baumannii (increase in extracellular AK activity)
  fold induction at 50 µM: 1.1
E. cloacae; planktonic E. cloacae, 384-well, cutoff for positive-scoring molecules 3-fold increase, read-out: AK-based Prestwick Library Screening Results: E. cloacae (increase in extracellular AK activity)
  fold induction at 50 µM: 1.4
E. coli; planktonic E. coli, 384-well, cutoff for positive-scoring molecules 3-fold increase, read-out: AK-based Prestwick Library Screening Results: E. coli (increase in extracellular AK activity)
  fold induction at 50 µM: 1.4
K. pneumoniae; planktonic K. pneumoniae, 384-well, cutoff for positive-scoring molecules 3-fold increase, read-out: AK-based Prestwick Library Screening Results: K. pneumoniae (increase in extracellular AK activity)
  fold induction at 50 µM: 0.9

— patent US10004701B2, “Methods and compositions for treating infection” (UNIVERSITY OF ROCHESTER, priority 2012, dated 2018)
